According to patent publication US20140179664A1, “Heterocyclyl Pyrimidine Analogues As JAK Inhibitors” (Cellzome Limited, priority 2011, published 2014):

Experiments:
Type in all cases: binding
TYK2 = target: T1, TYK2 (Homo sapiens, UniProt P29597); assay: Kinobeads assay, TYK2; details: mixed Molt4/Ramos lysate, read-out: Inhibition values (IC50) TYK2
T1 construct: endogenous in cells; host or cells: Molt4 (ATCC CRL-1582) and Ramos (ATCC CRL-1596), mixed lysate 1:2
In short: (§1)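 Mixed Molt4/Ramos lysate (1:2, 10 mg/mL protein) was incubated 3 h in the cold with the immobilized aminopyrido-pyrimidine affinity matrix and compound, 9-step 1:3 dilutions. Bead-bound kinases were eluted and quantified by antibody dot blot with infrared detection. IC50s are from dose-response curves.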

JAK1 = target: T2, JAK1 (Homo sapiens, UniProt P23458); assay: Kinobeads assay, JAK1; details: mixed Molt4/Ramos lysate, read-out: Inhibition values (IC50) JAK1
T2 construct: endogenous in cells; host or cells: Molt4 (ATCC CRL-1582) and Ramos (ATCC CRL-1596), mixed lysate 1:2
T2 sequence (P23458 whole entry): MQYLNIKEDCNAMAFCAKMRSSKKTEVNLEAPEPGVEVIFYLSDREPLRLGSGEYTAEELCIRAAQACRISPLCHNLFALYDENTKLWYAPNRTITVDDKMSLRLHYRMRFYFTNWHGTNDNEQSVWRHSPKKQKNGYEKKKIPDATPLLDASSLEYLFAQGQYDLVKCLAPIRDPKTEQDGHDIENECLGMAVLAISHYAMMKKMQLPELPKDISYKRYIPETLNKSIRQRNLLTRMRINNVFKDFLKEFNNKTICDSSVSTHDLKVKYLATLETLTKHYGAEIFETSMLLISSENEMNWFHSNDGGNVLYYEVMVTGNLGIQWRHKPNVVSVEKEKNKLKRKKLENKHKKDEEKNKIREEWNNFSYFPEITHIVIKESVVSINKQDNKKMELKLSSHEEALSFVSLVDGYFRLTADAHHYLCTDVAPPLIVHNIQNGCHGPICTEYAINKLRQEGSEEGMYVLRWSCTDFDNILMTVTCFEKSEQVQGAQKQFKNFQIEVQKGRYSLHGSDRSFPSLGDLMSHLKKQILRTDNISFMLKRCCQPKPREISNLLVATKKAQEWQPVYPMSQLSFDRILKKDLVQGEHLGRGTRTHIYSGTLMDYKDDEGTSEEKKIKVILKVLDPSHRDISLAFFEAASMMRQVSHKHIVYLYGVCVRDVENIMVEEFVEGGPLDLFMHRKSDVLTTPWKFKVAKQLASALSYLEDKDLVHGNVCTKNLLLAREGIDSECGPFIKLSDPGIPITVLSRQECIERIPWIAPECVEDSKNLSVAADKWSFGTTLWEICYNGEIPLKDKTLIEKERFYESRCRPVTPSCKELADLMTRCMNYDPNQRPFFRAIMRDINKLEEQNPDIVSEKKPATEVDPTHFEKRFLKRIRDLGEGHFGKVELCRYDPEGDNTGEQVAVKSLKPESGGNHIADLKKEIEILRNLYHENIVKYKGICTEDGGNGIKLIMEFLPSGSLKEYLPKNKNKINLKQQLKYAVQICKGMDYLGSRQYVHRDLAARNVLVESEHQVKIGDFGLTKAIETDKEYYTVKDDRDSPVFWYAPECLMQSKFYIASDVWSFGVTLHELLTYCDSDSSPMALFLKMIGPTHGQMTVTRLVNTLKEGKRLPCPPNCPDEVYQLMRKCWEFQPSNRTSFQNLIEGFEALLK
In short: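 Mixed Molt4/Ramos cell lysate (1:2) was incubated 3 hours in the cold with kinobeads and a 9-step 1:3 compound dilution series. The no-compound control carried 2% DMSO. Bead-bound JAK1 was eluted, detected by antibody dot blot with infrared fluorescence, and IC50 derived from dose-response curves.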

JAK2 = target: T3, JAK2 (Homo sapiens, UniProt O60674); assay: Kinobeads assay, JAK2; details: mixed Molt4/Ramos lysate, read-out: Inhibition values (IC50) JAK2
T3 construct: endogenous in cells; host or cells: Molt4 (ATCC CRL-1582) and Ramos (ATCC CRL-1596), mixed lysate 1:2
T3 sequence (O60674 whole entry): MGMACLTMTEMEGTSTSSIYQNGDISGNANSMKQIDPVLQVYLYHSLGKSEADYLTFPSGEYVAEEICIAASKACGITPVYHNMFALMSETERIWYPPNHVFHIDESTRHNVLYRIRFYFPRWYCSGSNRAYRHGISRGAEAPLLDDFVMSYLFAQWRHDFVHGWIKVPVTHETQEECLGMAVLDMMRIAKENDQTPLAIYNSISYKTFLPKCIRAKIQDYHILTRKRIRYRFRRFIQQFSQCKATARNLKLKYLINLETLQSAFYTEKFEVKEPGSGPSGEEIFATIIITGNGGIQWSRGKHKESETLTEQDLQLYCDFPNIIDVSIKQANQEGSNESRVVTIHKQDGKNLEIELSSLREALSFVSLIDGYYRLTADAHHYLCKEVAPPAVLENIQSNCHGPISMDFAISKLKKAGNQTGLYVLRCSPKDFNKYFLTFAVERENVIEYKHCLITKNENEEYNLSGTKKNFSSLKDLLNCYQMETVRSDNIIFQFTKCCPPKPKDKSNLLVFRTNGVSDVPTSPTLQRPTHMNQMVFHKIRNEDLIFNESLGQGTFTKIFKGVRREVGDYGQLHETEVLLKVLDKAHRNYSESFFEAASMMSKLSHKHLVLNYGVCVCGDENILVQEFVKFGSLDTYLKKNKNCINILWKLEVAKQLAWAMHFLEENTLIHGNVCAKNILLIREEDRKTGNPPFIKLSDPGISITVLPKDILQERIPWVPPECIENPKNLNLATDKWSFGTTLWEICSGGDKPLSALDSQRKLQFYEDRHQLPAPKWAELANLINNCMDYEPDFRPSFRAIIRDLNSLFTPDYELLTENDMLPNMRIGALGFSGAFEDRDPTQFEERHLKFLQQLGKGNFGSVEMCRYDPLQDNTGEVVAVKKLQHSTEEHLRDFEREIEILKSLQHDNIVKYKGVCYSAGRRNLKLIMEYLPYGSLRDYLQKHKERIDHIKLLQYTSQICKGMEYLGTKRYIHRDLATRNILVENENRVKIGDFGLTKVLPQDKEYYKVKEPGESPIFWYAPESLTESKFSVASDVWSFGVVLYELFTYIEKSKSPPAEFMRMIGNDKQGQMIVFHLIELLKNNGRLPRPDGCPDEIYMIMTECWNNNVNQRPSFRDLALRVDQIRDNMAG
In short: as §1

T1 sequence (P29597 whole entry): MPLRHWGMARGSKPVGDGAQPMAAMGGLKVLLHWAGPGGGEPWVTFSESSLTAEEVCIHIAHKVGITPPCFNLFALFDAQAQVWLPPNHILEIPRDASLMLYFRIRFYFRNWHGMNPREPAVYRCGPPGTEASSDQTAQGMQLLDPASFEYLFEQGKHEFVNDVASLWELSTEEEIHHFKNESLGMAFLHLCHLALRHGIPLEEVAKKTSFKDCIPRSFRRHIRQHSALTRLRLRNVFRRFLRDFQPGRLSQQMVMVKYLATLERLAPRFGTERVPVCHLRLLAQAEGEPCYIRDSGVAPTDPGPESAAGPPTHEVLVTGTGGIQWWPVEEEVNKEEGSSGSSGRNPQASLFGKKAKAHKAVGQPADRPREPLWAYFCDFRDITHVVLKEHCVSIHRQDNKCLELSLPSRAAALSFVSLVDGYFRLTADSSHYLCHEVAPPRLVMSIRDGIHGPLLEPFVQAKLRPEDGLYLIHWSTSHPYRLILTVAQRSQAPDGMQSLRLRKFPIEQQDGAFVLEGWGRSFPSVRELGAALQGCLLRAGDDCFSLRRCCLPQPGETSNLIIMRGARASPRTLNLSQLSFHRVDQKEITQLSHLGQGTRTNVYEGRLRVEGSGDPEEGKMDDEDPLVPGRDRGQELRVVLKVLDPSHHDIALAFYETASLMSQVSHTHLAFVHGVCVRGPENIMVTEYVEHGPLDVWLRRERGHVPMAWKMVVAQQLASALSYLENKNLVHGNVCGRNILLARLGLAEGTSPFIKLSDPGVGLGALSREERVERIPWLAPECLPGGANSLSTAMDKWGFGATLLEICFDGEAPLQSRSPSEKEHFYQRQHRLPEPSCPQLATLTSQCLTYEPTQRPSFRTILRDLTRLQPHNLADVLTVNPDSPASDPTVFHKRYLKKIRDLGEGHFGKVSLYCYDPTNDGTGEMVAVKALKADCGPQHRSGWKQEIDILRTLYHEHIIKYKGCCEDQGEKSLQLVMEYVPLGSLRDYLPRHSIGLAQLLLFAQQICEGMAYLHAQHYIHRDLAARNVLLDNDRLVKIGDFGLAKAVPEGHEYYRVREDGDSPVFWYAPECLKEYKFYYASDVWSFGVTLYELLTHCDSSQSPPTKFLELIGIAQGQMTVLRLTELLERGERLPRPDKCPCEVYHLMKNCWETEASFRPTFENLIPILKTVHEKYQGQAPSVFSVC

| SMILES | IC50 (TYK2) [nM] | IC50 (JAK1) [nM] | IC50 (JAK2) [nM] |
| --- | --- | --- | --- |
| Cn1cc(Nc2ncc(F)c(N[C@H](CO)c3ccccc3)n2)cn1 [Compound 3] | 1000 to 10000 | 1000 to 10000 | ≥ 10000 |
| Cn1cc(Nc2ncc(Cl)c(N[C@H](CO)c3cccc(F)c3)n2)cn1 [Compound 85] | 100 to 1000 | 100 to 1000 | 100 to 1000 |
| OCCn1cc(Nc2ncc(Cl)c(N[C@H](CO)c3cccc(F)c3)n2)cn1 [Compound 86] | 100 to 1000 | 100 to 1000 | 100 to 1000 |
| NC(=O)Cn1cc(Nc2ncc(Cl)c(N[C@H](CO)c3cccc(F)c3)n2)cn1 [Compound 87] | 100 to 1000 | < 100 | 100 to 1000 |
| OC[C@@H](Nc1nc(Nc2cn[nH]c2)ncc1Cl)c1cccc(F)c1 [Compound 88] | 100 to 1000 | 100 to 1000 | 100 to 1000 |
| CN(C)CCNC(=O)Cn1cc(Nc2ncc(Cl)c(N[C@H](CO)c3ccccc3)n2)cn1 [Compound 89] | 100 to 1000 | 100 to 1000 | 1000 to 10000 |
| CN(C)CCCNC(=O)Cn1cc(Nc2ncc(Cl)c(N[C@H](CO)c3ccccc3)n2)cn1 [Compound 90] | 100 to 1000 | 100 to 1000 | 1000 to 10000 |
| Cn1cc(Nc2ncc(Cl)c(N[C@H](CO)c3cccnc3)n2)cn1 [Compound 91] | 100 to 1000 | 100 to 1000 | 1000 to 10000 |
| OCCn1cc(Nc2ncc(Cl)c(N[C@H](CO)c3cccnc3)n2)cn1 [Compound 92] | 100 to 1000 | 100 to 1000 | 1000 to 10000 |
| OCCn1cc(Nc2ncc(Cl)c(NC(CO)c3cccc(Br)c3)n2)cn1 (stereo not drawn) [Compound 93] | 100 to 1000 | 1000 to 10000 | 1000 to 10000 |
